Laboratory results reported in US9751874B2, “Hydroxy containing FXR (NR1H4) modulating compounds” (Gilead Sciences, Inc., priority 2014, dated 2017).
Counter-ions that a name gives are not always drawn.

Tests used:
[1] = target: T1, FXR ligand binding domain (Homo sapiens, UniProt Q96RI1); experiment: Mammalian One Hybrid (M1H) assay, Gal4 promoter driven transactivation in HEK293 cells; assay type: cell-based; conditions: Gal4-FXR-LBD luciferase reporter, 16 h
T1 construct: expressed in transfected cells; host or cells: HEK293 cells, transiently transfected with pCMV-BD-FXR-LBD, pFR-Luc and pRL-CMV
T1 sequence (Q96RI1 187-472 isoform Q96RI1-2): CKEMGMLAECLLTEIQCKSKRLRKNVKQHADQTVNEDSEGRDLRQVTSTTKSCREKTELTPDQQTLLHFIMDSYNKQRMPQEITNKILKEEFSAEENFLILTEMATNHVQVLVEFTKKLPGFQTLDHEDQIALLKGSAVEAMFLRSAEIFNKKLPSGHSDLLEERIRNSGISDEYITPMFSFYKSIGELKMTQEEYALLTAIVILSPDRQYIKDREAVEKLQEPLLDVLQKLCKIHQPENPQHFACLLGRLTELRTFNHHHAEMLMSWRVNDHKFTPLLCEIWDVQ
Experimental: Mammalian One Hybrid (M1H) Assay
Determination of a ligand mediated Gal4 promoter driven transactivation to quantify ligand binding mediated activation of FXR was performed as follows: The cDNA part encoding the FXR ligand binding domain was cloned into vector pCMV-BD (Stratagene) as a fusion to the yeast GAL4 DNA binding domain under the control of the CMV promoter. The amino acid boundaries of the ligand binding domain were amino acids 187-472 of Database entry NM_005123 (RefSeq). The plasmid pFR-Luc (Stratagene) was used as the reporter plasmid, containing a synthetic promoter with five tandem repeats of the yeast GAL4 binding sites, driving the expression of the Photinus pyralis (American firefly) luciferase gene as the reporter gene. In order to improve experimental accuracy the plasmid pRL-CMV (Promega) was cotransfected. pRL-CMV contains the constitutive CMV promoter, controlling the expression of the Renilla reniformis luciferase. All Gal4 reporter gene assays were done in HEK293 cells (obtained from DSMZ, Braunschweig, Germany) grown in MEM with L-Glutamine and Earle's BSS supplemented with 10% fetal bovine serum, 0.1 mM nonessential amino acids, 1 mM sodium pyruvate, and 100 units Penicilin/[…] per mL at 37° C. in 5% CO2. Medium and supplements were obtained from Invitrogen. For the assay, […] cells were plated per well in 96 well plates in 100 μL per well MEM without Phenol Red and L-Glutamine and with Earle's BSS supplemented with 10% charcoal/dextran treated FBS (HyClone, South Logan, Utah), 0.1 mM nonessential amino acids, 2 mM glutamine, 1 mM sodium pyruvate, and 100 units Penicilin/[…] per mL, incubated at 37° C. in 5% CO2. The following day the cells were >90% confluence. Medium was removed and cells were transiently transfected using 20 μL per well of a OptiMEM—polyethylene-imine-based transfection-reagent (OptiMEM, Invitrogen; Polyethyleneimine, Aldrich Cat No. 40,827-7) including the three plasmids described above. MEM with the same composition as used for plating cells was added 2-4 h after addition of transfection mixture. Then compound stocks, prediluted in MEM were added (final vehicle concentration not exceeding 0.1%). Cells were incubated for additional 16 h before firefly and renilla luciferase activities were measured sequentially in the same cell extract using a Dual-Light-Luciferase-Assay system (Dyer et al., Anal. Biochem. 2000, 282, 158-161). All experiments were done in triplicates.

[2] = target: T2, human FXR alpha ligand binding domain (Homo sapiens, UniProt Q96RI1); experiment: FRET activity assay (ligand mediated cofactor peptide interaction, LANCE); assay type: biochemical; conditions: GST-FXR-LBD / biotinylated SRC-1 peptide (676-700), read-out: F EC50
T2 construct: made in house; host or cells: E. coli BL21(DE3), vector pDEST15
T2 sequence (Q96RI1 187-472 isoform Q96RI1-2): T1 sequence (Q96RI1 187-472 isoform Q96RI1-2)
Experimental: Determination of a ligand mediated cofactor peptide interaction to quantify ligand binding to the nuclear receptor FXR was performed as follows: Preparation of human FXR alpha ligand binding domain: The human FXRalpha LBD was expressed in E. coli strain BL21(DE3) as an N-terminally GST tagged fusion protein. The DNA encoding the FXR ligand binding domain was cloned into vector pDEST15 (Invitrogen). Expression was under control of an IPTG inducible T7 promoter. The amino acid boundaries of the ligand binding domain were amino acids 187-472 of Database entry NM_005123 (RefSeq). Expression and purification of the FXR-LBD: An overnight preculture of a transformed E. coli strain was diluted 1:20 in LB-Ampicillin medium and grown at 30° C. to an optical density of OD600=0.4-0.6. Gene expression was then induced by addition of 0.5 mM IPTG. Cells were incubated an additional 6 h at 30° C., 180 rpm. Cells were collected by centrifugation (7000×g, 7 min, rt). Per liter of original cell culture, cells were resuspended in 10 mL lysis buffer (50 mM Glucose, 50 mM Tris pH 7.9, 1 mM EDTA and 4 mg/mL lysozyme) and left on ice for 30 min. Cells were then subjected to sonication and cell debris removed via centrifugation (22000×g, 30 min, 4° C.). Per 10 mL of supernatant 0.5 mL prewashed Glutathione 4B sepharose slurry (Qiagen) was added and the suspension kept slowly rotating for 1 h at 4° C. Glutathione 4B sepharose beads were pelleted by centrifugation (2000×g, 15 sec, 4° C.) and washed twice in wash buffer (25 mM Tris, 50 mM KCl, 4 mM MgCl2 and 1M NaCl). The pellet was resuspended in 3 mL elution buffer per liter of original culture (elution buffer: 20 mM Tris, 60 mM KCl, 5 mM MgCl2 and 80 mM glutathione added immediately prior to use as powder). The suspension was left rotating for 15 min at 4° C., the beads pelleted and eluted again with half the volume of elution buffer than the first time. The eluates were pooled and dialysed overnight in 20 mM Hepes buffer (pH 7.5) containing 60 mM KCl, 5 mM MgCl2 as well as 1 mM dithiothreitol and 10% (v/v) glycerol. The protein was analysed by SDS-Page.
The method measures the ability of putative ligands to modulate the interaction between the purified bacterial expressed FXR ligand binding domain (LBD) and a synthetic biotinylated peptide based on residues 676-700 of SRC-1 (LCD2, 676-700). The sequence of the peptide used was B—[…]—COOH where the N-terminus was biotinylated (B). The ligand binding domain (LBD) of FXR was expressed as fusion protein with GST in BL-21 cells using the vector pDEST15. Cells were lysed by sonication, and the fusion proteins purified over glutathione sepharose (Pharmacia) according to the manufacturers instructions. For screening of compounds for their influence on the FXR-peptide interaction, the Perkin Elmer LANCE technology was applied. This method relies on the binding dependent energy transfer from a donor to an acceptor fluorophor attached to the binding partner of interest. For ease of handling and reduction of background from compound fluorescence LANCE technology makes use of generic fluorophore labels and time resolved detection Assays were done in a final volume of 25 μL in a 384 well plate, in a Tris-based buffer (20 mM Tris-HCl pH 7.5; 60 mM KCl, 5 mM MgCl2; 35 ng/μL BSA), containing 20-60 ng/well recombinantly expressed FXR-LBD fused to GST, 200-600 nM N-terminally biotinylated peptide, representing SRC1 aminoacids 676-700, 200 ng/well Streptavidin-xIAPC conjugate (Prozyme) and 6-10 ng/well Eu W1024-antiGST (Perkin Elmer). DMSO content of the samples was kept at 1%. After generation of the assay mix and diluting the potentially FXR modulating ligands, the assay was equilibrated for 1 h in the dark at rt in FIA-plates black 384 well (Greiner). The LANCE signal was detected by a Perkin Elmer VICTOR2VTM Multilabel Counter. The results were visualized by plotting the ratio between the emitted light at 665 and 615 nm. […]

Work on O=C(O)c1ccc2nc([C@]3(O)[C@@H]4CC[C@H]3C[C@H](OCc3c(-c5c(Cl)cccc5Cl)noc3C3CC3)C4)sc2c1 [Example 11-22, 2-((1R,3s,5S,8r)-3-((5-cyclopropyl-3-(2,6-dichlorophenyl)isoxazol-4-yl)methoxy)-8-hydroxybicyclo[3.2.1]octan-8-yl)benzo[d]thiazole-6-carboxylic acid] yielded an EC50 [1] of 1.6 nM and an EC50 [2] of 3.7 nM.
Compound O=C(O)c1cccc2nc([C@]3(O)CC[C@@H](OCc4c(-c5c(Cl)cccc5Cl)noc4C4CC4)CC3)sc12 [Example 26, 2-((1s,4s)-4-((5-Cyclopropyl-3-(2,6-dichlorophenyl)isoxazol-4-yl)methoxy)-1-hydroxycyclohexyl)benzo[d]thiazole-7-carboxylic acid] has an EC50 [1] of 210 nM and an EC50 [2] of 17 nM.
For O[C@@]1(c2cnc3nn[nH]c3c2)[C@@H]2CC[C@H]1C[C@H](OCc1c(-c3c(Cl)cccc3Cl)noc1C1CC1)C2 [Example 34, (1R,3s,5S,8r)-8-(1H-[1,2,3]Triazolo[4,5-b]pyridin-6-yl)-3-((5-cyclopropyl-3-(2,6-dichlorophenyl)isoxazol-4-yl)methoxy)bicyclo[3.2.1]octan-8-ol], the EC50 [1] was 5.3 nM and the EC50 [2] was 4.1 nM.
O=C(NCCN1CCOCC1)c1cc(F)c2nc([C@]3(O)CC[C@@H](OCc4c(-c5c(Cl)cncc5Cl)noc4C4CC4)CC3)sc2c1 [Example 17, 2-((1s,4s)-4-((5-Cyclopropyl-3-(3,5-dichloropyridin-4-yl)isoxazol-4-yl)methoxy)-1-hydroxycyclohexyl)-4-fluoro-N-(2-morpholinoethyl)benzo[d]thiazole-6-carboxamide] was tested, and the EC50 [1] was 670 nM and the EC50 [2] was 150 nM.
For CC(C)(F)c1onc(-c2c(Cl)cccc2Cl)c1CO[C@@H]1C[C@H]2CC[C@@H](C1)[C@]2(O)c1nc2c(F)cc(C(=O)O)cc2s1 [Example 11-52, 2-((1R,3s,5S,8r)-3-((3-(2,6-Dichlorophenyl)-5-(2-fluoropropan-2-yl)isoxazol-4-yl)methoxy)-8-hydroxybicyclo[3.2.1]octan-8-yl)-4-fluorobenzo[d]thiazole-6-carboxylic acid], the EC50 [1] was 1.9 nM and the EC50 [2] was 4.9 nM.
Compound CS(=O)(=O)NC(=O)c1cc(F)c2nc([C@]3(O)CC[C@@H](OCc4c(-c5c(Cl)cccc5Cl)noc4C4CC4)CC3)sc2c1 [Example 16, 2-((1s,4s)-4-((5-Cyclopropyl-3-(2,6-dichlorophenyl)isoxazol-4-yl)methoxy)-1-hydroxycyclohexyl)-4-fluoro-N-(methylsulfonyl)benzo[d]thiazole-6-carboxamide] has an EC50 [1] of 1900 nM and an EC50 [2] of 22 nM.
O=C(O)c1cc(F)c2nc([C@]3(O)CC[C@@H](OCc4c(-c5c(Cl)cccc5Cl)noc4C4CC4)CC3)sc2c1 [Example 11-31, 2-((1s,4s)-4-((5-cyclopropyl-3-(2,6-dichlorophenyl)isoxazol-4-yl)methoxy)-1-hydroxycyclohexyl)-4-fluorobenzo[d]thiazole-6-carboxylic acid] was tested, and the EC50 [1] was 130 nM and the EC50 [2] was 50 nM.
Compound O=C(O)c1ccc2sc([C@]3(O)CC[C@@H](OCc4c(-c5c(Cl)cccc5Cl)noc4C4CC4)CC3)nc2c1 [Example 4, 2-((1s,4s)-4-((5-Cyclopropyl-3-(2,6-dichlorophenyl)isoxazol-4-yl)methoxy)-1-hydroxycyclohexyl)benzo[d]thiazole-5-carboxylic acid] has an EC50 [1] of 100 nM and an EC50 [2] of 21 nM.
In the case of O=Cc1nsc2ccc([C@]3(O)CC[C@@H](OCc4c(-c5c(Cl)cccc5Cl)noc4C4CC4)CC3)cc12 [Example 32, 5-((1s,4s)-4-((5-Cyclopropyl-3-(2,6-dichlorophenyl)isoxazol-4-yl)methoxy)-1-hydroxycyclohexyl)benzo[d]isothiazole-3-carbaldehyde], the EC50 [1] is reported as 400 nM and the EC50 [2] is reported as 190 nM.
CC(C)(O)c1cc(F)c2nc([C@]3(O)CC[C@@H](OCc4c(-c5c(Cl)cncc5Cl)noc4C4CC4)CC3)sc2c1 [Example 20, (1s,4s)-4-((5-Cyclopropyl-3-(3,5-dichloropyridin-4-yl)isoxazol-4-yl)methoxy)-1-(4-fluoro-6-(2-hydroxypropan-2-yl)benzo[d]thiazol-2-yl)cyclohexanol] was tested, and the EC50 [1] was 200 nM and the EC50 [2] was 150 nM.
Work on O=C(NCCS(=O)(=O)O)c1cc(F)c2nc([C@]3(O)[C@@H]4CC[C@H]3C[C@H](OCc3c(-c5c(Cl)cccc5Cl)noc3C3CC3)C4)sc2c1 [Example 39, 2-(2-((1R,3s,5S,8r)-3-((5-Cyclopropyl-3-(2,6-dichlorophenyl)isoxazol-4-yl)methoxy)-8-hydroxybicyclo[3.2.1]octan-8-yl)-4-fluorobenzo[d]thiazole-6-carboxamido)ethanesulfonic acid, ammonia salt] yielded an EC50 [1] of 760 nM and an EC50 [2] of 3.2 nM.
O=C(O)c1ccnc([C@]2(O)[C@@H]3CC[C@H]2C[C@H](OCc2c(-c4c(Cl)cccc4Cl)noc2C2CC2)C3)c1 [Example 11-26] was tested, and the EC50 [1] was 1800 nM and the EC50 [2] was 53 nM.
